Results taken from patent US12479829B2, “2-[2-methylazetidin-1-yl]-4-phenyl-6-(trifluoromethyl)-pyrimidine compounds” (Eli Lilly and Company, priority 2020, dated 2025).

What was measured:
[1] = molecular target: human KHK-C (Homo sapiens (Human), UniProt P50053); assay: KHK Enzyme Activity Assay for Human KHK-C; assay type: biochemical; details: fructose 250 μM, ATP 150 μM; F1P production by RapidFire MS; read-out: hKHK-C IC50
Procedure: (§1) KHK Enzyme Activity Assay for Human KHK-C and Human KHK-A
(§2) The intrinsic potency for inhitibiton of KHK C or A activity may be measured using an enzymatic assay which measures the production of F1P. Compounds are prepared in DMSO and tested in a 10-point concentration curve, to create 3-fold serial dilutions of the compounds in a 96-well plate ranging from 20 μM to 1.02 nM. Enzyme is prepared in assay buffer [50 mM 4-(2-hydroxyethyl)piperazine-1-ethanesulfonic acid (HEPES), 10 mM potassium chloride, 100 mM magnesium chloride, 2 mM tris(2-carboxyethyl)phosphine (TCEP), 0.01% n-octyl glucoside] and incubated with compounds at RT for 15 min. The reaction is carried out in 100 μL volumes containing substrate concentrations of fructose (250 μM for KHK-C assay and 1.25 mM for KHK-A assay) and ATP (150 μM for both isoforms); which are further incubated at RT for 20 min. The reaction is then halted by the addition of stop buffer; consisting of 0.2% formic acid and 1 μg/ml ^13C6-fructose-6-phosphate (^13C6-F6P) internal standard. Plates are stored in −20° C. until RapidFire MS analysis.
(§3) RapidFire MS Analysis for Quantitation of F1P
(§4) An Agilent 300 RapidFire automated extraction system (Agilent, Santa Clara, CA) with three HPLC quaternary pumps is coupled to an Agilent 6495 triple quadrupole mass spectrometer (Agilent Technologies, Santa Clara, CA) equipped with an electrospray ionization (ESI) interface source. […]
(§5) Solvent A, used for sample loading and washing, is 6 mM octylamine (Acros Organics 129495000) brought to pH 5.0 using acetic acid. […] Samples are sequentially analyzed by aspirating 10 μL onto the collection loop under vacuum directly from multiwell plates. […]
(§6) The triple quadrupole mass spectrometer is equipped with an ESI source and analytes are monitored using selected reaction monitoring (SRM) in negative mode [M−H]−. F1P is monitored at m/z 259.02/96.9 and ^13C6-fructose-6-phospate is monitored at m/z 264.99/97. The area ratio values for F1P is calculated using ^13C6-fructose-6-phospate as internal standard.

[2] = molecular target: human KHK-A (Homo sapiens (Human), UniProt P50053); assay: KHK Enzyme Activity Assay for Human KHK-A; assay type: biochemical; details: fructose 1.25 mM, ATP 150 μM; F1P production by RapidFire MS; read-out: hKHK-A IC50
Procedure: as §1, §2, §3, §4, §5, §6

[3] = system: cellular KHK in HepG2 liver cells; assay: KHK Cellular Activity Assay (conversion of fructose to F1P in HepG2 liver cells); assay type: cell-based; details: Homo sapiens, 8.33 mM D-Fructose-13C6, 3 h at 37° C.
Procedure: An Agilent 300 RapidFire automated extraction system (Agilent, Santa Clara, CA) with three HPLC quaternary pumps is coupled to an Agilent 6495 triple quadrupole mass spectrometer (Agilent Technologies, Santa Clara, CA) equipped with an electrospray ionization (ESI) interface source. The RapidFire Mass Spec system is equipped with a reusable RapidFire C18 (type C) solid-phase extraction (SPE) cartridge (G9205A).
Solvent A, used for sample loading and washing, is 6 mM octylamine (Acros Organics 129495000) brought to pH 5.0 using acetic acid. Solvent B, used for sample elution, is 20% water in ACN containing 0.1% formic acid. Samples are sequentially analyzed by aspirating 10 μL onto the collection loop under vacuum directly from multiwell plates. The 10 μL of sample is loaded onto the C18 cartridge and washed using solvent A at a flow rate of 1.25 mL/min for 5000 ms. The retained analytes are then eluted to the mass spectrometer using solvent B at a flow rate of 1.25 mL/min for 5000 ms. The system is re-equilibrated using solvent A at a flow rate of 1.25 mL/min for 2000 ms.
as §6
KHK Cellular Activity Assay
Potency can be measured using a cellular assay for the inhibition of conversion of Fructose to F1P by cellular KHK. HepG2 liver cells are plated on 96-well cell culture plates in growth media [Dulbecco's Modified Eagle's medium (DMEM) high glucose, 10% heat-inactivated fetal bovine serum (HI FBS), 1×Penicillin/streptomycin] and allowed to attach overnight in a 37° C. incubator. The growth media is washed and replaced with assay media consisting of Gibco OptiMEM1 Reduced Serum Medium, 0.1% Casein, 8.33 mM D-Fructose-^13C6, and compound concentrations ranging from 100 μM to 0.0051 μM (10-point concentration curve). […]

[4] = Pharmacokinetics in Dogs; assay type: in vivo, Beagle Dogs; details: for oral bioavailability / total clearance: dog (in the rat [sic]), result in words
Procedure: (§7) Liquid Chromatograph with Tandem Mass Spectrometry (LC-MS/MS) Method for Pharmacokinetic Assays: Samples are extracted using a protein precipitation by adding 180 μL of MeOH:ACN (1:1, v/v) containing an internal standard to 50 μL of plasma. Samples are then diluted with MeOH:Water (1:1, v/v) to get concentrations within standard curve range. Diluted samples are analyzed by LC-MS/MS using a Sciex API 4000 triple quadrupole mass spectrometer (Applied Biosystems/MDS; Foster City, CA) equipped with a TurboIonSpray interface, and operated in positive ion mode. The analytes are chromatographically separated using a ECHELON C18 4 um 20×2.1 mm column. LC conditions are Water/1 M ammonium bicarbonate, (2000:10, v/v) (Mobile Phase A), and MeOH/1 M ammonium bicarbonate, (2000:10, v/v) (Mobile Phase B).
(§8) The compound is administered by a single oral (PO; 2 mg/kg; volume of 2 mL/kg) or intravenous (IV; 1 mg/kg; volume of 1 mL/kg) dose in vehicle. Blood is collected from each animal at multiple time points between 0 and up to 24 hours post-dosage. The plasma concentrations of Example 2 and Example 3 are determined by a LC-MS/MS method as described above.

[5] = Pharmacokinetics in Sprague Dawley Rats; assay type: in vivo; details: rat; for clearance / half-life / bioavailability: Sprague-Dawley, plasma, IV 1 mg/kg; for bioavailability: fasted, PO 3 mg/kg; for oral bioavailability / total clearance: result in words
Procedure: as §7
Pharmacokinetics in Sprague Dawley Rats
as §8, with “(PO; 3” for “(PO; 2”, “of 10” for “of 2”

[6] = administered for 6 weeks; subjects with non-alcoholic fatty liver disease; cited from earlier work
[7] = beagle, plasma, dog, fed, IV 1 mg/kg

Sequence of human KHK-C (P50053 whole entry): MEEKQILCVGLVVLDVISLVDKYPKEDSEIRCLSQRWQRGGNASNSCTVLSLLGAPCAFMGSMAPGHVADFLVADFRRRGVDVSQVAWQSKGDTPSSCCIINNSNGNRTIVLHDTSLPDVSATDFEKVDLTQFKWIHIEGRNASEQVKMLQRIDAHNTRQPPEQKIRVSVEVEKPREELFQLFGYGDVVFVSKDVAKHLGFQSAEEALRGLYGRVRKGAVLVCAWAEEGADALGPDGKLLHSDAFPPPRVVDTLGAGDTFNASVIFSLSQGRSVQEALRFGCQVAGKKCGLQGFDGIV
Sequence of human KHK-A (P50053 other isoform, or with tags, fused parts or gaps): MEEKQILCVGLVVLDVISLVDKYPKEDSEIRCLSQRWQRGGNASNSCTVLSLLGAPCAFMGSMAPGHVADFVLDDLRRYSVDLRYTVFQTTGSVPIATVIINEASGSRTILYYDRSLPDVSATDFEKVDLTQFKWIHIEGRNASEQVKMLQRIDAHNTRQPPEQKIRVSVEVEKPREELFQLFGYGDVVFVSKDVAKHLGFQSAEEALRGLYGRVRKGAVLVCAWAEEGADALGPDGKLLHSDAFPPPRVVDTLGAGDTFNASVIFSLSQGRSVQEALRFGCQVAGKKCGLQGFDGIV

Compound | IC50 [1] [nM] | IC50 [2] [nM] | IC50 [3] [nM] | clearance [4, 7] [mL/min/kg] | half-life [4, 7] [h] | oral bioavailability [4] | total clearance [4] | clearance [5] [mL/min/kg] | half-life [5] [h] | bioavailability [5] [%] | oral bioavailability [5] | total clearance [5] | half-life ([4]; beagle, plasma, dog, fed, PO 2 mg/kg) [h] | bioavailability ([4]; beagle, plasma, dog, fed, PO 2 mg/kg, IV 1 mg/kg) [%] | whole liver fat as measured by magnetic resonance imaging-proton density fat fraction [6]
C[C@H]1CCN1c1nc(-c2ccc(C(=O)O)cc2)cc(C(F)(F)F)n1 [Example 1, 4-{2-[(2S)-2-Methylazetidin-1-yl]-6-(trifluoromethyl)pyrimidin-4-yl}benzoic acid] | 22.6 | 21.5 | 911 |  |  |  |  |  |  |  |  |  |  |  | 
C[C@H]1CCN1c1nc(-c2ccc(C(=O)N3C[C@@H](O)[C@@H](O)C3)cc2)cc(C(F)(F)F)n1 [Example 2, [(3R,4S)-3,4-Dihydroxypyrrolidin-1-yl]-[4-{2-[(2S)-2-methylazetidin-1-yl]-6-(trifluoromethyl)pyrimidin-4-yl}phenyl]methanone] | 23.1 | 12.7 | 186 | 2.15 | 11.3 | high | low | 5.57 | 6.42 | 65 | high | low |  |  | 
C[C@H]1CCN1c1nc(-c2ccc(C(=O)NC(CO)(CO)CO)cc2)cc(C(F)(F)F)n1 [Example 3, N-[2-Hydroxy-1,1-bis(hydroxymethyl)ethyl]-4-{2-[(2S)-2-methylazetidin-1-yl]-6-(trifluoromethyl)pyrimidin-4-yl}benzamide] | 29.7 | 23.4 | 82.1 | 4.77 | 5.07 | high | low | 12.7 | 2.95 | 69 | high | low | 4.52 | ~96 | 
C[C@H]1CCN1c1nc(N2C[C@@H]3[C@@H](CC(=O)O)[C@@H]3C2)cc(C(F)(F)F)n1 [PF-06835919] |  |  |  |  |  |  |  |  |  |  |  |  |  |  | reduces whole liver fat
